Measured values reported in patent US4880798A, “Cephalosporin derivatives” (Mochida Pharmaceutical Co., Ltd., priority 1986, dated 1989).
Values after ≈ are worked out from the molar mass of the structure shown. Like-named read-outs stand apart in the source and are kept apart here.

How the values were obtained:
[1] = system: Klebsiella pneumoniae IFO 3317; test: Antibacterial activity in vitro (MIC), agar plate dilution method; assay type: cell-based
Experimental: (§1) Antibacterial activity in vitro was determined in accordance with the agar plate dilution method.
(§2) A platinum loop each of test bacteria (10^6 cells/ml), cultured in Mueller Hinton broth, was inoculated on Mueller Hinton agar plates which contained test compounds at various concentrations. After cultivating at 37° C. for 20 hours, the minimum inhibitory concentration (MIC μg/ml) was determined.

[2] = system: Escherichia coli NIHJ JC 2; test: as above; assay type: cell-based; settings: NIHJJC2, Mueller Hinton agar, 10^6 cells/ml, 37° C., 20 hours
Experimental: as §1, §2

[3] = system: Serratia marcescens IFO 3759; test: as above; assay type: cell-based
Experimental: as §1, §2

[4] = system: Staphylococcus aureus 209P; test: as above; assay type: cell-based; settings: Mueller Hinton agar, 10^6 cells/ml, 37° C., 20 hours
Experimental: as §1, §2

Serratia marcescens 274 = test: Protection against systemic bacterial infection in ICR mice (ED50); assay type: in vivo; settings: 168 h
Experimental: (§3) Protection ability against systemic bacterial infection was determined as follows. An aqueous suspension of test bacteria was intraperitoneally injected into 10 four week old ICR mice. One hour after the infection, test compounds were intravenously administered. The number of surviving mice was counted 1 week after injection to determine the dose at which 50% of the test animals were alive (ED50 : mg/kg).

Staphylococcus aureus 4 = test: as above; assay type: in vivo; settings: iv, 168 h, Staphylococcus aureus 4 (methicillin-resistant strain), i.p. infection, compound i.v. one hour after infection, survival 1 week
Experimental: as §3

[5] = system: Pseudomonas aeruginosa 34; test: as above; assay type: in vivo; settings: 168 h
Experimental: as §3

LD50, Probit method = settings: in vivo, iv
Experimental: Next, LD50 of representative examples of the compounds of the present invention is shown in Table 3 wherein LD50 was determined in accordance with the Probit method.

Staphylococcus aureus 58 = test: Protection against systemic bacterial infection in ICR mice (ED50); assay type: in vivo; settings: iv, 168 h, Staphylococcus aureus 58 (methicillin-resistant strain), i.p. infection, compound i.v. one hour after infection, survival 1 week
Experimental: as §3

[6] = system: Pseudomonas aeruginosa 34; test: Antibacterial activity in vitro (MIC), agar plate dilution method; assay type: cell-based
Experimental: as §1, §2

Escherichia coli 67 = test: Protection against systemic bacterial infection in ICR mice (ED50); assay type: in vivo; settings: iv, 168 h, Escherichia coli 67, i.p. infection, compound i.v. one hour after infection, survival 1 week
Experimental: as §3

[7] = system: Klebsiella pneumoniae IFO 3317; test: as above; assay type: in vivo; settings: IFO3317, iv, 168 h
Experimental: as §3

[8] = system: Pseudomonas aeruginosa IFO 3445; test: as above; assay type: in vivo; settings: IFO3445, iv, 168 h
Experimental: as §3

Enterobacter 8 = test: as above; assay type: in vivo; settings: 168 h
Experimental: as §3

[9] = IFO3317, Klebsiella pneumoniae IFO 3317, Mueller Hinton agar, 10^6 cells/ml, 37° C., 20 hours, read-out: MIC
[10] = IFO3759, Serratia marcescens IFO 3759, Mueller Hinton agar, 10^6 cells/ml, 37° C., 20 hours, read-out: MIC
[11] = iv, Serratia marcescens 274, i.p. infection, ICR mice, compound i.v. one hour after infection, survival 1 week, read-out: ED50
[12] = iv, Pseudomonas aeruginosa 34, i.p. infection, ICR mice, compound i.v. one hour after infection, survival 1 week, read-out: ED50
[13] = Pseudomonas aeruginosa 34, Mueller Hinton agar, 10^6 cells/ml, 37° C., 20 hours, read-out: MIC
[14] = Klebsiella pneumoniae IFO 3317, i.p. infection, ICR mice, compound i.v. one hour after infection, survival 1 week, read-out: ED50
[15] = Pseudomonas aeruginosa IFO 3445, i.p. infection, ICR mice, compound i.v. one hour after infection, survival 1 week, read-out: ED50
[16] = iv, Enterobacter 8, i.p. infection, ICR mice, compound i.v. one hour after infection, survival 1 week, read-out: ED50

| SMILES | MIC [1, 9] [µg/mL] | MIC [2] [µg/mL] | MIC [3, 10] [µg/mL] | MIC [4] [µg/mL] | ED50 (Serratia marcescens 274; [11]) [mg/kg] | ED50 (Staphylococcus aureus 4) [mg/kg] | ED50 [5, 12] [mg/kg] | LD50 (LD50, Probit method) [mg/kg] | ED50 (Staphylococcus aureus 58) [mg/kg] | ED50 (Escherichia coli 67) [mg/kg] | also measured |
| --- | --- | --- | --- | --- | --- | --- | --- | --- | --- | --- | --- |
| Cc1cc(SCC2=C(C(=O)O)N3C(=O)[C@@H](NC(=O)/C(=N\OCc4ccc(O)c(O)c4C(=O)O)c4csc(N)n4)[C@H]3SC2)n2nc(C(=O)O)nc2n1 [Compound 4, (6R,7R)-7-[2-(2-amino-4-thiazolyl)-2-[Z-[(2-carboxy-3,4-dihydroxyphenyl)methyl]oxyimino]acetamido]-3-[(2-carboxy-5-methyl-s-triazolo[1,5-a]pyrimidin-7-yl)thiomethyl]-8-oxo-5-thia-1-azabicyclo[4.2.0]oct-2-ene-2-carboxylic acid] | 0.05 (≈ 0.066 µM) | 0.39 (≈ 0.515 µM) | 0.39 (≈ 0.515 µM) | 3.13 (≈ 4.13 µM) | 0.97 | 3.35 | 50.6 | > 4000 | – | – | – |
| Cn1nnnc1SCC1=C(C(=O)O)N2C(=O)[C@@H](NC(=O)[C@H](O)c3ccccc3)[C@H]2SC1 [CMD, Cefamandole, reference compound] | – | – | – | – | – | 5.94 | – | – | 18.9 | – | – |
| Cc1cc(SCC2=C(C(=O)O)N3C(=O)[C@@H](NC(=O)/C(=N\OCc4c(C(=O)O)ccc(O)c4O)c4csc(N)n4)[C@H]3SC2)n2nc(C(=O)O)nc2n1 [Compound 1, (6R,7R)-7-[2-(2-amino-4-thiazolyl)-2-[Z-[(6-carboxy-2,3-dihydroxyphenyl)methyl]oxyimino]acetamido]-3-[(2-carboxy-5-methyl-s-triazolo[1,5-a]pyrimidin-7-yl)thiomethyl]-8-oxo-5-thia-1-azabicyclo[4.2.0]oct-2-ene-2-carboxylic acid] | < 0.05 | 0.78 (≈ 1.03 µM) | 0.39 (≈ 0.515 µM) | 6.25 (≈ 8.25 µM) | 0.5 | – | – | > 4000 | 15.9 | 1.59 | MIC [6, 13]: 0.2 µg/mL (≈ 0.264 µM); ED50 [7, 14]: 0.55 mg/kg; ED50 [8, 15]: 52 mg/kg; ED50 (Enterobacter 8; [16]): 1.28 mg/kg |
| Cc1cc(SCC2=C(C(=O)O)N3C(=O)[C@@H](NC(=O)/C(=N\OCc4cc(O)c(O)c(C(=O)O)c4)c4csc(N)n4)[C@H]3SC2)n2nc(C(=O)O)nc2n1 [Compound 3, (6R,7R)-7-[2-(2-amino-4-thiazolyl)-2-[Z-[(3-carboxy-4,5-dihydroxyphenyl)methyl]oxyimino]acetamido]-3-[(2-carboxy-5-methyl-s-triazolo[1,5-a]pyrimidin-7-yl)thiomethyl]-8-oxo-5-thia-1-azabicyclo[4.2.0]oct-2-ene-2-carboxylic acid] | 0.1 (≈ 0.132 µM) | 0.78 (≈ 1.03 µM) | 0.78 (≈ 1.03 µM) | 6.25 (≈ 8.25 µM) | 0.72 | 2.08 | 46.8 | > 4000 | – | – | – |
| CC(C)(O/N=C(\C(=O)N[C@@H]1C(=O)N2C(C(=O)[O-])=C(C[n+]3ccccc3)CS[C@H]12)c1csc(N)n1)C(=O)O [CAZ, Ceftazidime, reference compound] | – | 0.2 (≈ 0.366 µM) | – | – | – | – | – | – | – | 2.8 | MIC ([1]; Klebsiella pneumoniae, IFO3317, 20 h): < 0.05 µg/mL; MIC ([6]; Pseudomonas aeruginosa, 34, 20 h): 3.13 µg/mL (≈ 5.73 µM); MIC ([3]; Serratia marcescens, IFO3759, 20 h): < 0.05 µg/mL; ED50 ([7]; Klebsiella pneumoniae): 1.73 mg/kg; ED50 ([8]; Pseudomonas aeruginosa): 230 mg/kg; ED50 (Serratia marcescens 274; Serratia marcescens, 274, iv): 3.62 mg/kg; ED50 (Enterobacter 8; Enterobacter, 8, iv): 4.36 mg/kg; ED50 ([5]; Pseudomonas aeruginosa, 34, iv): 123 mg/kg |
| Cc1cc(SCC2=C(C(=O)O)N3C(=O)[C@@H](NC(=O)/C(=N\OCc4cc(C(=O)O)cc(O)c4O)c4csc(N)n4)[C@H]3SC2)n2nc(C(=O)O)nc2n1 [Compound 2, (6R,7R)-7-[2-(2-amino-4-thiazolyl)-2-[Z-[(5-carboxy-2,3-dihydroxyphenyl)methyl]oxyimino]acetamido]-3-[(2-carboxy-5-methyl-s-triazolo[1,5-a]pyrimidin-7-yl)thiomethyl]-8-oxo-5-thia-1-azabicyclo[4.2.0]oct-2-ene-2-carboxylic acid] | 0.05 (≈ 0.066 µM) | 0.39 (≈ 0.515 µM) | 0.1 (≈ 0.132 µM) | 6.25 (≈ 8.25 µM) | 0.55 | – | – | > 4000 | 9.65 | 1.1 | MIC [6, 13]: 0.2 µg/mL (≈ 0.264 µM); ED50 [7, 14]: 0.34 mg/kg; ED50 [8, 15]: 33.7 mg/kg; ED50 (Enterobacter 8; [16]): 1.31 mg/kg |
| Cc1cc(SCC2=C(C(=O)O)N3C(=O)[C@@H](NC(=O)/C(=N\OCc4ccc(C(=O)O)c(O)c4O)c4csc(N)n4)[C@H]3SC2)n2nc(C(=O)O)nc2n1 [Compound 5, (6R,7R)-7-[2-(2-amino-4-thiazolyl)-2-[Z-[(4-carboxy-2,3-dihydroxyphenyl)methyl]oxyimino]acetamido]-3-[(2-carboxy-5-methyl-s-triazolo[1,5-a]pyrimidin-7-yl)thiomethyl]-8-oxo-5-thia-1-azabicyclo[4.2.0]oct-2-ene-2-carboxylic acid] | 0.05 (≈ 0.066 µM) | 0.78 (≈ 1.03 µM) | 0.78 (≈ 1.03 µM) | 3.13 (≈ 4.13 µM) | 0.75 | 4.21 | 81.2 | > 4000 | – | – | – |
